pIC50: −log10 of the molar value.
Test system: 616215-338-R-J1-PDC spheroids with HUVEC/MSC, viability
Experiment: Anticancer human tumor 616215-338-R-J1-PDC patient-derived colon adenocarcinoma cell line growth inhibition [PI3K]
Conditions: for pIC50: curve of first compound; for viability, T/C: stronger effect = lower value
In short: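 Tumor cells were combined with HUVEC and MSCs into spheroids, then dosed with PI3K-inhibitor combinations over half-log ranges capped near clinical Cmax or 10 microM.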

[1] = second compound 0.0316 µM, first compound 0.0316 µM
[2] = second compound 0.0316 µM, first compound 0.1 µM
[3] = second compound 0.0316 µM, first compound 0.316 µM
[4] = second compound 0.0316 µM, first compound 1 µM
[5] = second compound 0.0316 µM, first compound 3.16 µM
[6] = second compound 0.0316 µM, first compound 10 µM
[7] = second compound 0.1 µM, first compound 0.0316 µM
[8] = second compound 0.1 µM, first compound 0.1 µM
[9] = second compound 0.1 µM, first compound 0.316 µM
[10] = second compound 0.1 µM, first compound 1 µM
[11] = second compound 0.1 µM, first compound 3.16 µM
[12] = second compound 0.1 µM, first compound 10 µM
[13] = second compound 0.316 µM, first compound 0.0316 µM
[14] = second compound 0.316 µM, first compound 0.1 µM
[15] = second compound 0.316 µM, first compound 0.316 µM
[16] = second compound 0.316 µM, first compound 1 µM
[17] = second compound 0.316 µM, first compound 3.16 µM
[18] = second compound 0.316 µM, first compound 10 µM
[19] = second compound 1 µM, first compound 0.0316 µM
[20] = second compound 1 µM, first compound 0.1 µM
[21] = second compound 1 µM, first compound 0.316 µM
[22] = second compound 1 µM, first compound 1 µM
[23] = second compound 1 µM, first compound 3.16 µM
[24] = second compound 1 µM, first compound 10 µM
[25] = second compound 3.16 µM, first compound 0.0316 µM
[26] = second compound 3.16 µM, first compound 0.1 µM
[27] = second compound 3.16 µM, first compound 0.316 µM
[28] = second compound 3.16 µM, first compound 1 µM
[29] = second compound 3.16 µM, first compound 3.16 µM
[30] = second compound 3.16 µM, first compound 10 µM
[31] = second compound 10 µM, first compound 0.0316 µM
[32] = second compound 10 µM, first compound 0.1 µM
[33] = second compound 10 µM, first compound 0.316 µM
[34] = second compound 10 µM, first compound 1 µM
[35] = second compound 10 µM, first compound 3.16 µM
[36] = second compound 10 µM, first compound 10 µM
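Also: spheroids exposed to agents for seven days before the viability read.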

With `C=CC(=O)N1CCN(c2nc(=O)n(-c3c(C)ccnc3C(C)C)c3nc(-c4c(O)cccc4F)c(F)cc23)C(C)C1` (stereo not drawn) + CC(Nc1ncnc2nc[nH]c12)c1cc2cccc(Cl)c2c(=O)n1-c1ccccc1 the pIC50 (second compound 0.0316 µM) was less than 5.00, the pIC50 (second compound 0.1 µM) was less than 5.00 and the pIC50 (second compound 0.316 µM) was less than 5.00. The pIC50 (second compound 1 µM) was less than 5.00, the pIC50 (second compound 3.16 µM) was less than 5.00 and the pIC50 (second compound 10 µM) was less than 5.00. It also gave a viability, T/C [1] of 89%, a viability, T/C [2] of 92.5% and a viability, T/C [3] of 109%. For the same compound, the viability, T/C [4] was 104%, the viability, T/C [5] was 93.3% and the viability, T/C [6] was 95.8%. It also gave a viability, T/C [7] of 100%, a viability, T/C [8] of 99.3% and a viability, T/C [9] of 98%. It also gave a viability, T/C [10] of 93.4%, a viability, T/C [11] of 96.8% and a viability, T/C [12] of 89.1%. It also gave a viability, T/C [13] of 99.7%, a viability, T/C [14] of 107% and a viability, T/C [15] of 92.8%. For the same compound, the viability, T/C [16] was 96.5%, the viability, T/C [17] was 91.4% and the viability, T/C [18] was 74.7%. The viability, T/C [19] was 101%, the viability, T/C [20] was 99.5% and the viability, T/C [21] was 106%. For the same compound, the viability, T/C [22] was 96.9%, the viability, T/C [23] was 94% and the viability, T/C [24] was 88.5%. The viability, T/C [25] was 101%, the viability, T/C [26] was 104% and the viability, T/C [27] was 98%. It also gave a viability, T/C [28] of 105%, a viability, T/C [29] of 85.4% and a viability, T/C [30] of 78.8%. The viability, T/C [31] was 106%, the viability, T/C [32] was 107% and the viability, T/C [33] was 108%. It also gave a viability, T/C [34] of 95.5%, a viability, T/C [35] of 99% and a viability, T/C [36] of 82.6%.
Work on `C[C@@H](NC(=O)c1ncnc(N)c1Cl)c1ncc(C(=O)Nc2cc(C(F)(F)F)c(Cl)cn2)s1` + CC(Nc1ncnc2nc[nH]c12)c1cc2cccc(Cl)c2c(=O)n1-c1ccccc1 yielded a pIC50 (second compound 0.0316 µM) of less than 5.00, a pIC50 (second compound 0.1 µM) of less than 5.00 and a pIC50 (second compound 0.316 µM) of less than 5.00. It also gave a pIC50 (second compound 1 µM) of less than 5.00, a pIC50 (second compound 3.16 µM) of less than 5.00 and a pIC50 (second compound 10 µM) of 5.01. For the same compound, the viability, T/C [1] was 100%, the viability, T/C [2] was 115% and the viability, T/C [3] was 105%. The viability, T/C [4] was 105%, the viability, T/C [5] was 114% and the viability, T/C [6] was 88.5%. It also gave a viability, T/C [7] of 99.7%, a viability, T/C [8] of 101% and a viability, T/C [9] of 97%. It also gave a viability, T/C [10] of 118%, a viability, T/C [11] of 105% and a viability, T/C [12] of 90.5%. The viability, T/C [13] was 112%, the viability, T/C [14] was 105% and the viability, T/C [15] was 101%. It also gave a viability, T/C [16] of 110%, a viability, T/C [17] of 99% and a viability, T/C [18] of 74.6%. For the same compound, the viability, T/C [19] was 104%, the viability, T/C [20] was 106% and the viability, T/C [21] was 104%. It also gave a viability, T/C [22] of 96.6%, a viability, T/C [23] of 113% and a viability, T/C [24] of 64.8%. The viability, T/C [25] was 95.9%, the viability, T/C [26] was 103% and the viability, T/C [27] was 104%. For the same compound, the viability, T/C [28] was 98.4%, the viability, T/C [29] was 99.4% and the viability, T/C [30] was 67.2%. It also gave a viability, T/C [31] of 95.4%, a viability, T/C [32] of 113% and a viability, T/C [33] of 98.8%. For the same compound, the viability, T/C [34] was 98.5%, the viability, T/C [35] was 88.5% and the viability, T/C [36] was 48.4%.
Compound `Cn1nccc1Nc1nccc(-c2ccn(C(CO)c3ccc(Cl)c(F)c3)c(=O)c2)n1` (stereo not drawn) + Cc1nc(NC(=O)N2CCCC2C(N)=O)sc1-c1ccnc(C(C)(C)C(F)(F)F)c1 has a pIC50 (second compound 0.0316 µM) of 5.46, a pIC50 (second compound 0.1 µM) of 5.53 and a pIC50 (second compound 0.316 µM) of 5.64. For the same compound, the pIC50 (second compound 1 µM) was 5.80, the pIC50 (second compound 3.16 µM) was 6.13 and the pIC50 (second compound 10 µM) was 6.26. For the same compound, the viability, T/C [1] was 106%, the viability, T/C [2] was 81.5% and the viability, T/C [3] was 83.8%. The viability, T/C [4] was 68.9%, the viability, T/C [5] was 47.8% and the viability, T/C [6] was 37.1%. The viability, T/C [7] was 97.2%, the viability, T/C [8] was 97.9% and the viability, T/C [9] was 86.2%. It also gave a viability, T/C [10] of 58.3%, a viability, T/C [11] of 56.6% and a viability, T/C [12] of 33.1%. It also gave a viability, T/C [13] of 96.7%, a viability, T/C [14] of 86% and a viability, T/C [15] of 87.6%. The viability, T/C [16] was 72.1%, the viability, T/C [17] was 40.7% and the viability, T/C [18] was 29.1%. For the same compound, the viability, T/C [19] was 92.4%, the viability, T/C [20] was 97.8% and the viability, T/C [21] was 67.8%. The viability, T/C [22] was 57.7%, the viability, T/C [23] was 42.1% and the viability, T/C [24] was 26.8%. For the same compound, the viability, T/C [25] was 96%, the viability, T/C [26] was 89.3% and the viability, T/C [27] was 68%. For the same compound, the viability, T/C [28] was 39.3%, the viability, T/C [29] was 32.4% and the viability, T/C [30] was 13.9%. For the same compound, the viability, T/C [31] was 94.2%, the viability, T/C [32] was 83.9% and the viability, T/C [33] was 70.2%. It also gave a viability, T/C [34] of 29.7%, a viability, T/C [35] of 5.53% and a viability, T/C [36] of 1.47%.
With `C=CC(=O)N1CCN(c2nc(=O)n(-c3c(C)ccnc3C(C)C)c3nc(-c4c(O)cccc4F)c(F)cc23)C(C)C1` (stereo not drawn) + Cc1nc(NC(=O)N2CCCC2C(N)=O)sc1-c1ccnc(C(C)(C)C(F)(F)F)c1 the pIC50 (second compound 0.0316 µM) was less than 5.00, the pIC50 (second compound 0.1 µM) was less than 5.00 and the pIC50 (second compound 0.316 µM) was less than 5.00. The pIC50 (second compound 1 µM) was less than 5.00, the pIC50 (second compound 3.16 µM) was less than 5.00 and the pIC50 (second compound 10 µM) was less than 5.00. For the same compound, the viability, T/C [1] was 104%, the viability, T/C [2] was 92.1% and the viability, T/C [3] was 99.2%. For the same compound, the viability, T/C [4] was 88.3%, the viability, T/C [5] was 113% and the viability, T/C [6] was 95.2%. For the same compound, the viability, T/C [7] was 100%, the viability, T/C [8] was 92.7% and the viability, T/C [9] was 91.6%. The viability, T/C [10] was 98.8%, the viability, T/C [11] was 103% and the viability, T/C [12] was 90.3%. For the same compound, the viability, T/C [13] was 108%, the viability, T/C [14] was 103% and the viability, T/C [15] was 111%. For the same compound, the viability, T/C [16] was 101%, the viability, T/C [17] was 104% and the viability, T/C [18] was 86.5%. It also gave a viability, T/C [19] of 97.5%, a viability, T/C [20] of 93.3% and a viability, T/C [21] of 109%. It also gave a viability, T/C [22] of 99.1%, a viability, T/C [23] of 110% and a viability, T/C [24] of 84.9%. It also gave a viability, T/C [25] of 98.6%, a viability, T/C [26] of 98.3% and a viability, T/C [27] of 102%. It also gave a viability, T/C [28] of 89.5%, a viability, T/C [29] of 95.8% and a viability, T/C [30] of 80.2%. The viability, T/C [31] was 94.4%, the viability, T/C [32] was 86.7% and the viability, T/C [33] was 98.7%. It also gave a viability, T/C [34] of 91.1%, a viability, T/C [35] of 95.9% and a viability, T/C [36] of 83.6%.

— PubChem BioAssay AID1963978 (Molecular Pharmacology Branch, DTP, NCI, 2024)
